Data taken from patent publication US9682925B2, “Cyclopropaneamine compound” (TAKEDA PHARMACEUTICAL COMPANY LIMITED, priority 2011, dated 2017).
pIC50: −log10 of the molar value. Where a name gives a salt, the structure may show the parent alone.

Experiments:
Format in all cases: biochemical
MAO-B = target: T1, MAO-B (Homo sapiens, UniProt P27338); experiment: Measurement of MAO-B inhibitory activity (MAO-Glo Assay)
T1 construct: purchased Sigma-Aldrich Co. LLC
T1 sequence (P27338 1-520): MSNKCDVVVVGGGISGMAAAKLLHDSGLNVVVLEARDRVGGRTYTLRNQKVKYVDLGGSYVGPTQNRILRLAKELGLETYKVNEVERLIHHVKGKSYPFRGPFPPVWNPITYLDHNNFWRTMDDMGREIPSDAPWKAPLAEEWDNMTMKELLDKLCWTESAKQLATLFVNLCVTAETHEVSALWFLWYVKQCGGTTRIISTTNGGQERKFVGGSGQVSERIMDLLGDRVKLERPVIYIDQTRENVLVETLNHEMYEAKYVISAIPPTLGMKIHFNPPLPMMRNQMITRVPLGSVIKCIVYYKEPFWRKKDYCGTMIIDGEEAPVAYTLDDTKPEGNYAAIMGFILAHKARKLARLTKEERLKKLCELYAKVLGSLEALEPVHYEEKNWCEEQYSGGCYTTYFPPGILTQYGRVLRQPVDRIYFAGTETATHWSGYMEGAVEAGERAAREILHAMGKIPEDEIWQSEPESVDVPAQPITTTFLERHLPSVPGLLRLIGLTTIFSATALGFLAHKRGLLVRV
Outline: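 Percent inhibition was calculated from luciferin-based luminescence, corrected with a blank lacking enzyme and a control lacking compound. The reaction ran 60 min at room temperature after adding MAO substrate (16 µM as added). This followed a 10 min compound–enzyme preincubation in HEPES pH 7.5 buffer.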

human LSD1(171-852) = target: T2, human LSD1(171-852) (Homo sapiens, UniProt O60341); experiment: Measurement of LSD1 inhibitory activity (time-resolved fluorescence, biotin-histone H3 mono methylated K4 peptide); details: read-out: LSD1 IC50 value
T2 construct: to give hLSD1(171-852) purified product; made in house; host or cells: Escherichia coli C43(DE3) pLysS

MAO-A = target: T3, MAO-A (Homo sapiens, UniProt P21397); experiment: Measurement of MAO-A inhibitory activity (MAO-Glo Assay)
T3 construct: purchased Sigma-Aldrich Co. LLC
T3 sequence (P21397 1-527): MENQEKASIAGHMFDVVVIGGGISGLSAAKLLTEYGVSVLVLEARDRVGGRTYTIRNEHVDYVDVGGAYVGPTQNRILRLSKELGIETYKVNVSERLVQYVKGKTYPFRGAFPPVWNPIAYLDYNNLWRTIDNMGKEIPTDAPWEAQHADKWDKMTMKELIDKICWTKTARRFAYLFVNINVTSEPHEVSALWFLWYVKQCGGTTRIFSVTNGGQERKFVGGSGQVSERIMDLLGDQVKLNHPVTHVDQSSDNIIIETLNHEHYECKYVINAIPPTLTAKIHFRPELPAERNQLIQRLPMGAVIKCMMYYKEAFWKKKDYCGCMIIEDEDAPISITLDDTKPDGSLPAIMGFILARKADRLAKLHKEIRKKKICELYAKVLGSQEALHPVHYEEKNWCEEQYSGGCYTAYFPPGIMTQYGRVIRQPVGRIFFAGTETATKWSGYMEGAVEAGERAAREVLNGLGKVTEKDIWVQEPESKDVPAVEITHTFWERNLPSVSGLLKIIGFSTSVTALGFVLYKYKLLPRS
Outline: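 Luminescent MAO-Glo read-out: % inhibition computed from counts relative to enzyme-only control and enzyme-free blank. Compound and 400 ng MAO-A in HEPES pH 7.5 with 5% glycerol stood 10 min at room temperature before MAO substrate (160 μM stock) started a 60 min reaction.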

| Compound | pIC50 (MAO-B) | pIC50 (human LSD1(171-852)) | pIC50 (MAO-A) |
| --- | --- | --- | --- |
| Cc1cc(C(=O)Nc2ccc([C@@H]3C[C@H]3NCC3CC3)cc2)n(C)n1 (relative stereo) [Example 156, N-(4-{trans-2-[(cyclopropylmethyl)amino]cyclopropyl}phenyl)-1,3-dimethyl-1H-pyrazole-5-carboxamide dihydrochloride] | < 5.00 | > 7.00 | < 5.00 |
| CC(C)(C)CN[C@@H]1C[C@H]1c1ccc(NC(=O)c2ccccc2)cc1 (relative stereo) [Example 17, N-(4-{trans-2-[(2,2-dimethyl-propyl)amino]-cyclopropyl)-phenyl)benzamide] | < 5.00 | > 7.00 | < 5.00 |
| CC(=O)N1CCCc2ccc(C(=O)Nc3ccc([C@@H]4C[C@H]4NCC4CC4)cc3)cc2C1 (relative stereo) [Example 134, 2-acetyl-N-(4-{trans-2-[(cyclopropyl-methyl)amino]-cyclopropyl}-phenyl)-2,3,4,5-tetrahydro-1H-2-benzazepine-8-carboxamide] | < 5.00 | > 7.00 | < 5.00 |
| O=C(Nc1ccc([C@@H]2C[C@H]2NCC2CC2)cc1)C1CCCCC1 (relative stereo) [Example 141, N-(4-{trans-2-[(cyclopropylmethyl)amino]cyclopropyl}phenyl)-cyclohexanecarboxamide hydrochloride] | < 5.00 | > 7.00 | < 5.00 |
| O=C(Nc1ccc([C@@H]2C[C@H]2NCC2CC2)cc1)c1cccc(Cn2cncn2)c1 (relative stereo) [Example 147, N-(4-{trans-2-[(cyclopropylmethyl)amino]cyclopropyl}phenyl)-3-(1H-1,2,4-triazol-1-ylmethyl)benzamide hydrochloride] | < 5.00 | > 7.00 | < 5.00 |
| CC(COc1ccccc1)N[C@@H]1C[C@H]1c1ccc(NC(=O)c2ccc(-c3ccccc3)cc2)cc1 (relative stereo) [Example 56, N-(4-{trans-2-[(1-methyl-2-phenoxyethyl)-amino]cyclo-propyl}phenyl)-biphenyl-4-carboxamide] | < 5.00 | 6.59 | < 5.00 |
| O=C(Nc1ccc([C@@H]2C[C@H]2NCC2CC2)cc1)c1ccccc1 (relative stereo) [Example 140, N-(4-{trans-2-[(cyclopropylmethyl)amino]cyclopropyl}phenyl)benzamide hydrochloride] | < 5.00 | > 7.00 | < 5.00 |
| O=C(Nc1ccc([C@@H]2C[C@H]2NC2CCC(F)(F)CC2)cc1)c1cccc(C(F)(F)F)c1 (relative stereo) [Example 154, N-(4-{trans-2-[(4,4-difluorocyclohexyl)amino]cyclopropyl}phenyl)-3-(trifluoromethyl)benzamide hydrochloride] | < 5.00 | > 7.00 | < 5.00 |
| CN1CCN(c2ccc(C(=O)Nc3ccc([C@@H]4C[C@H]4NCC4CC4)cc3)cc2)CC1 (relative stereo) [Example 130, N-(4-{trans-2-[(cyclopropyl-methyl)amino]cyclo-propyl}phenyl)-4-(4-methylpiperazin-1-yl)benzamide] | < 5.00 | > 7.00 | < 5.00 |
| O=C(Nc1ccc([C@@H]2C[C@H]2NCc2ccccc2)cc1)c1cccc(CCc2ccccc2)c1 (relative stereo) [Example 34, N-{4-[trans-2-(benzylamino)cyclopropyl]phenyl}-3-(2-phenylethyl)benzamide] | < 5.00 | 6.72 | < 5.00 |
| O=C(Nc1ccc([C@@H]2C[C@H]2NCc2ccccc2)cc1)c1ccc(-c2ccccc2)cc1 (relative stereo) [Example 35, N-{4-[trans-2-(benzylamino)cyclopropyl]phenyl}biphenyl-4-carboxamide] | < 5.00 | 6.89 | 5.89 |
| O=C(Nc1ccc([C@@H]2C[C@H]2NCC2CC2)cc1)c1cc(-c2ccccc2)no1 (relative stereo) [Example 133, N-(4-{trans-2-[(cyclopropyl-methyl)amino]-cyclopropyl}-phenyl)-3-phenyl-1,2-oxazole-5-carboxamide] | < 5.00 | > 7.00 | < 5.00 |
| O=C(Nc1ccc([C@@H]2C[C@H]2NCc2ccc3cccnc3n2)cc1)c1cccc(C(F)(F)F)c1 (relative stereo) [Example 162, N-(4-{trans-2-[(1,8-naphthyridin-2-ylmethyl)amino]cyclopropyl}phenyl)-3-(trifluoromethyl)benzamide hydrochloride] | < 5.00 | > 7.00 | 5.68 |
| O=C(Nc1ccc([C@@H]2C[C@H]2NCc2ccncc2)cc1)c1ccc(-c2ccccc2)cc1 (relative stereo) [Example 39, N-(4-{trans-2-[(pyridin-4-ylmethyl)amino]-cyclopropyl}-phenyl)biphenyl-4-carboxamide] | < 5.00 | > 7.00 | < 5.00 |
| O=C(Nc1ccc([C@@H]2C[C@H]2NCc2cc3cccnc3s2)cc1)c1cccc(C(F)(F)F)c1 (relative stereo) [Example 161, N-(4-{trans-2-[(thieno[2,3-b]pyridin-2-ylmethyl)amino]cyclopropyl}phenyl)-3-(trifluoromethyl)benzamide hydrochloride] | < 5.00 | > 7.00 | 5.39 |

Now from value to molecule:

| pIC50 (MAO-B) | pIC50 (human LSD1(171-852)) | pIC50 (MAO-A) | Compound |
| --- | --- | --- | --- |
| < 5.00 | > 7.00 | < 5.00 | Cc1ccc(C(=O)Nc2ccc([C@@H]3C[C@H]3NCC3CC3)cc2)cc1C (relative stereo) [Example 105, N-(4-{trans-2-[(cyclopropylmethyl)amino]cyclopropyl}phenyl)-3,4-dimethylbenzamide hydrochloride] |
| < 5.00 | > 7.00 | < 5.00 | O=C(Nc1ccc([C@@H]2C[C@H]2NCC2CC2)cc1)c1ccc2ncsc2c1 (relative stereo) [Example 90, N-(4-{trans-2-[(cyclopropylmethyl)amino]cyclopropyl}-phenyl)-1,3-benzothiazole-6-carboxamide] |
| < 5.00 | > 7.00 | < 5.00 | CN(C)c1cccc(C(=O)Nc2ccc([C@@H]3C[C@H]3NCC3CC3)cc2)c1 (relative stereo) [Example 83, N-(4-{trans-2-[(cyclopropylmethyl)amino]cyclopropyl}phenyl)-3-(dimethylamino)benzamide bis(trifluoroacetate)] |
| < 5.00 | > 7.00 | 5.04 | O=C(Nc1ccc([C@@H]2C[C@H]2NCCOCc2ccccc2)cc1)c1ccccc1 (relative stereo) [Example 26, N-[4-(trans-2-{[2-(benzyloxy)-ethyl]amino}-cyclopropyl)-phenyl]benzamide] |
| < 5.00 | > 7.00 | < 5.00 | O=C(Nc1ccc([C@@H]2C[C@H]2NCC2CC2)cc1)c1ccc(OC(F)(F)F)cc1 (relative stereo) [Example 108, N-(4-{trans-2-[(cyclopropylmethyl)amino]cyclopropyl}phenyl)-4-(trifluoromethoxy)benzamide hydrochloride] |
| < 5.00 | 6.70 | 5.03 | CCCCCCCCN[C@@H]1C[C@H]1c1ccc(NC(=O)c2ccccc2)cc1 (relative stereo) [Example 2, N-{4-[trans-2-(octylamino)cyclopropyl]phenyl}benzamide] |
| < 5.00 | > 7.00 | < 5.00 | O=C(Nc1ccc([C@@H]2C[C@H]2NCC2CC2)cc1)c1ccc2nc(-c3ccsc3)[nH]c2c1 (relative stereo) [Example 97, N-(4-{trans-2-[(cyclopropylmethyl)-amino]cyclopropyl}-phenyl)-2-(3-thienyl)-1H-benzimidazole-6-carboxamide] |
| < 5.00 | > 7.00 | 5.33 | O=C(Nc1ccc([C@@H]2C[C@H]2NCc2ccc(-c3ccccc3)cc2)cc1)c1ccccc1 (relative stereo) [Example 16, N-(4-{trans-2-[(biphenyl-4-ylmethyl)amino]-cyclopropyl}-phenyl)benzamide] |
